Results as given in patent US4879300A, “Novel piperidine derivatives” (Dr. Lo. Zambeletti S.p.A., priority 1986, dated 1989).
Where two headings read alike, the source gives them in different places.

Legend:
[1] = tested on: mice; assay: Mouse tail-flick test (analgesic activity); type: in vivo, mouse (male Charles River)
[2] = target: T1, K receptor (Kappa opioid receptor) (Cavia porcellus, UniProt P41144); assay: Receptor binding to K sites (tritiated Ethylketocyclazocine, guinea pig brain homogenate); conditions: tritiated Ethylketocyclazocine with 100 nM DADLE and 100 nM DAGO, 25° C., 40 min, read-out: Receptor binding k (kj)
T1 construct: fresh guinea pig brain homogenate; from tissue; host or cells: guinea pig whole brain without cerebellum, homogenate
Experimental: (§1) Radio receptor binding to μ and K sites is performed on fresh guinea pig brain homogenate prepared according to Kosterlitz. (1981).
(§2) Whole brain without cerebellum is homogenized in 50 mM, Tris-buffer (pH 7.4 at 0° C.) and centrifuged at 49,000 ×g×10 min.
(§3) The pellet is then resuspended in the same buffer, incubated at 37° C. for 45 min. and centrifuged again.
(§4) 1.9 ml of the final homogenate (1:100 in Tris-pH 7.4, 0° C.) is used for the binding assay.
Binding to K sites (Magnan J., 1982)
The binding of tritiated Ethylketocyclazocine to brain homogenate is measured the in presence of 100 nanomolar D-Ala-D-LeuEnkephalin (DADLE) and 100 nanomolar DAGO, added to saturate the δ and μ opioid receptors respectively.
Final homogenate with solutions of the cold ligand and of the labelled ligand is incubated for 40 min. at 25° C., filtered through Whatman GF/C glass filter discs and washed.
The radioactivity bound to the filters is counted by liquid scintillation spectrophotometry.
MR 2266.500 nM is utilized to determine the saturable binding.
For the calculation of the kinetic parameters of the binding of labelled and unlabelled ligands, the equilibrium dissociation constant (KD), the inhibition constant (Ki) and the maximum number of binding sites (B max) are determined from saturation curves and competition experiments (Hill 1910; Scatchard 1949; Cheng and Prusoff 1973; Gillan et al. 1980). […]

[3] = target: μ receptor (Cavia porcellus, UniProt A0ACM8Q262); assay: Receptor binding to μ sites (3H-DAGO, guinea pig brain homogenate); conditions: 25° C., 40 min, read-out: Receptor binding μ (kj)
Experimental: as §1, §2, §3, §4
Binding to μ sites (Magnan J., 1982)
^3 H [D-Ala^2, MePhe^4, Gly-ol^5 ] Enkephalin (^3 H--DAGO), an enkephalin analogue that binds selectively to μ receptor, is added to the biological substrate and incubated at 25° C. for 40 min., filtered through Whatman GF-C and washed with ice-cold Tris-buffer.
The filters are then dryed, solubilized in Filtercount and the radioactivity monitored. Non specific binding is determined in the presence of 10^-6 M Naloxone.
For the calculation of the kinetic parameters of the binding of labelled and unlabelled ligands, the equilibrium dissociation constant (KD), the inhibition constant (Ki) and the maximum number of binding sites (B max) are determined from saturation curves and competition experiments (Hill 1910; Scatchard 1949; Cheng and Prusoff 1973; Gillan et al. 1980).
A concentration of radioligand near KD is used in the binding assays evaluating our compounds.

[4] = sc, 0.5 h, s.c., reaction time recorded 30 min after dosing, % mice doubling initial time, read-out: Mouse tail-flick ED50 (s.c.)

μ receptor, sequence (A0ACM8Q262 1-400): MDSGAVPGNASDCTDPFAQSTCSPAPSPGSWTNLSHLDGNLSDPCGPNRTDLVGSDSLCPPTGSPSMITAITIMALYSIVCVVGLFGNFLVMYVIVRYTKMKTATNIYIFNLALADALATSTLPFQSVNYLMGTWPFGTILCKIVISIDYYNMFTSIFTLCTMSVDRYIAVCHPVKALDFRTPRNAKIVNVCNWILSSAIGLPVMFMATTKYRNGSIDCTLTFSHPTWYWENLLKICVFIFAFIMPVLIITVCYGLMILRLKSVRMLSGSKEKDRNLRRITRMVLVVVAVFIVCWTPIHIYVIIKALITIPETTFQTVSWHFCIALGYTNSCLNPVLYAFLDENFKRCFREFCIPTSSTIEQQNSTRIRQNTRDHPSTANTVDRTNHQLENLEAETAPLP
T1 sequence (P41144 whole entry): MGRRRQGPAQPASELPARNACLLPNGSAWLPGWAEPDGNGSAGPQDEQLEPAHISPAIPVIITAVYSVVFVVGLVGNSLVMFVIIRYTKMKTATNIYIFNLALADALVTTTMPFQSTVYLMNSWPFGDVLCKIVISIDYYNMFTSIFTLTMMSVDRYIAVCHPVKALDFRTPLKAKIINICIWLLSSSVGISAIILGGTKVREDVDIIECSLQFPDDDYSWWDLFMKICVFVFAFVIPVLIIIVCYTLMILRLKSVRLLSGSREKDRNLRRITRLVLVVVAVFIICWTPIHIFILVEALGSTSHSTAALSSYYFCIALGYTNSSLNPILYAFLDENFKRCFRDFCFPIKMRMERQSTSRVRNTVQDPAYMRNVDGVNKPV

| Structure (SMILES) | ED50 ([1]; po, read-out: Mouse tail-flick ED50 (p.o.)) [mg/kg] | ED50 [1, 4] [mg/kg] | Ki [2] [nM] | Ki [3] [nM] |
| --- | --- | --- | --- | --- |
| CC(C1CCCCN1C(=O)Cc1ccc(Cl)c(Cl)c1)N(C)C.Cl (single isomer, unassigned; diastereoisomer b) [Example 4, 1-(3,4-dichlorophenylacetyl)-2-(1-dimethylaminoethyl) piperidine hydrochloride--Diastereoisomer B] | 0.75 | 0.41 | 2.3 | 913 |
| CC(C1CCCCN1C(=O)Cc1ccc(Cl)c(Cl)c1)N1CCCC1 (single isomer, unassigned; diastereoisomer b) [Example 2, 1-(3,4-dichlorophenylacetyl)-2-[1-(1-pyrrolidinyl)ethylpiperidine]--Diastereoisomer B] |  | 4.12 |  |  |
